Assay results as given in US7589078B2, “Anti-viral nucleoside analogs and methods for treating viral infections, especially HIV infections” (Yale University, priority 2003, dated 2009).
Where two headings read alike, the source gives them in different places.

Assays:
[1] = tested on: mtDNA content of CEM cells; assay: Mitochondrial DNA content in CEM cells (Southern blot); type: cell-based; settings: for IC50: four days, read-out: Mitochondrial DNA Content ID50
Procedure: Mitochondrial DNA: The effect of nucleoside analogs on mtDNA content was assessed as described previously (2). […] Cells treated with drugs at various concentrations either as single agents or in combination were grown for four days. Cells were then harvested, treated with proteinase K and DNase free RNase. Extracts were applied to nylon membranes and hybridized with an mtDNA probe. After stripping the membrane the load was normalized by rehybridizing the membrane with an Alu probe. Blots were quantitated with a Molecular Dynamics personal densitometer SI with ImageQuaNT analysis software.

HIV-1 strain IIIB [2] = assay: Antiviral activity in MT-2 cells infected with HIV-1 strain IIIB (MTT); type: cell-based
Procedure: Determination of antiviral activity: Compounds were tested in MT-2 cells infected with HIV-1 strain IIIB essentially as described previously (31). […]. Calculations of the percent protection and isobologram combination studies are described (12).

CEM cells = assay: Cellular toxicity in CEM cells (cell counts); settings: for IC50: read-out: Cellular ID50
Procedure: The basic procedures are similar. The cells are seeded a low concentration, then serial dilutions of test compound are added. […] After 48 to 96 h incubation at 37° C. in a 5% CO2 humidified incubator the assay is ended. The drug treated samples are compared to the untreated controls. This is accomplished in suspension cell lines by counting cell numbers either with a hemocytometer or by using a Coulter Counter.
The numbers in parentheses represent the mean and standard deviations of percentage of untreated CEM control cells at the concentration indicated.

H-9 cells = assay: Toxicity in H-9 cells alone and in combination (Coulter Counter); type: cell-based; settings: H-9 cells, 48 h
Text: (§1) The basic procedures are similar.

thymidine kinase (TK-1) [3] = target: T1, thymidine kinase (TK-1) (Homo sapiens, UniProt P04183); assay: Monophosphorylation of analogs by thymidine kinase; type: biochemical; parameters: phosphorylated by thymidine kinase (TK-1) from CEM cells; endogenous in cells; settings: for Relative Vmax: 250 μM dThd or analog, 2.4 mM ATP, 0.07 unit TK-1, 37° C., 285 min, dThd = 100
T1 sequence (P04183 1-234): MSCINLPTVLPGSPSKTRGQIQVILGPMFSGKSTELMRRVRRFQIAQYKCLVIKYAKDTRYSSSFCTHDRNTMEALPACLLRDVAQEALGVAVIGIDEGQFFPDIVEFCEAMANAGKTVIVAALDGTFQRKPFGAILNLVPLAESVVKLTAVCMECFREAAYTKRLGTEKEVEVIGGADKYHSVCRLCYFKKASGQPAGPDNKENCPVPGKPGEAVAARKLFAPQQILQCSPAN
Procedure: Monophosphorylation of Analogs by Thymidine Kinase: All the analogs were tested for their ability to be phosphorylated by thymidine kinase (TK-1) from CEM cells. This enzyme was purified by an affinity column technique developed in this laboratory (7). […] At the end of the incubation time the reaction was stopped by the addition of 3 parts cold HPLC grade methanol. After incubating on ice for at least 10 min. the methanol insoluble material is precipitated by centrifugation and the methanol soluble supernatants were placed into clean microfuge tubes. These samples were brought to dryness in a Speedvac Centrifuge. The samples were dissolved in water and separated on a Shimatzu HPLC model SCL 10Avp using a gradient of water to 300 mM potassium phosphate and a Whatman 10/25 particle SAX column. Km and relative Vmax studies were done in a similar fashion, using the same mixture and different amounts of substrate and enzyme.

thymidine kinase (TK-1) [4] = target: T1, thymidine kinase (TK-1); assay: Thymidine kinase assay with added nucleoside ([14C]-dThd to dTMP); settings: [14C]-dThd 25 μM, added nucleoside 250 μM; compared to reactions with no additions
Procedure: After two additional washes in ethanol, the discs were dried and placed in scintillation vials that contained 5 ml SafeScint Scintillation Cocktail (American Bioanalytical, Natick, Mass.). The amount of radioactivity, which represents the amount of dTMP formed, was quantitated in a Beckman LS5000TD Scintillation Counter (Beckman Instruments Inc., Palo Alto, Calif.).

MT-2 cells = assay: Cellular toxicity, MT-2 cell growth; type: cell-based; settings: MT-2 cells; read-out: ID50: concentration required to inhibit MT-2 cell growth by 50%
Text: as §1

HIV-1 strain IIIB [5] = settings: MT-2 cells; EC50 reported previously (17); read-out: EC50: effective concentration required to achieve 50% protection from HIV in MT-2 cells; cited from earlier work
[6] = target: T2, thymidine phosphorylase (TP) (Homo sapiens, UniProt P19971); assay: Thymidine phosphorylase assay; type: in vitro ADME; settings: partially purified TP from human liver, 100 μM nucleoside, 37° C., FIG. 11
T2 construct: using a partially purified prepartion of human liver extract (28) as a source of the thymidine phosphorylase (TP); from tissue; host or cells: human liver extract, partially purified
T2 sequence (P19971 11-482): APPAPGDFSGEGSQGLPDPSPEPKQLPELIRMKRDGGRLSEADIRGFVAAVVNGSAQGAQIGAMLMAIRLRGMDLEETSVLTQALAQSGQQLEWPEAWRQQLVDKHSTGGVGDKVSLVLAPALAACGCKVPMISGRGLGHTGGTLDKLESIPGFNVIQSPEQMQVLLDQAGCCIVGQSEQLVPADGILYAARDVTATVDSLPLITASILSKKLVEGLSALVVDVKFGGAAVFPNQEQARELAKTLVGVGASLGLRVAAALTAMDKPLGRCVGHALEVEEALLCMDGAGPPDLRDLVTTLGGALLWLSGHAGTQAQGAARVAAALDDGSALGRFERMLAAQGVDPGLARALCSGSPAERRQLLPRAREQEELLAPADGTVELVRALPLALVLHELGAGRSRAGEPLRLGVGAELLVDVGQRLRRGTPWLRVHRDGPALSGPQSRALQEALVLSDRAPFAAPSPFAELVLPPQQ
Procedure: Thymidine Phosphorylase Assays: Nucleoside analogs (100 μM) were incubated in 75 mM potassium phosphate buffer pH 7.3 at 37° C. using a partially purified prepartion of human liver extract (28) as a source of the thymidine phosphorylase (TP). After incubation, the reaction was stopped by the addition of trichloroacetic acid to a final concentration of 15%. The samples were then incubated on ice. After the acid insoluble components were removed by centrifugation, the supernatant was neutralized by two extractions with one half volume of trioctylamine/freon (45:55). The aqueous supernatants were examined by HPLC using the Beckman ODS column method, as described in Acid Stability Studies.

[7] = Human immunodeficiency virus 1, MT2, MT-2/HIV IIIB system, FIG. 10, read-out: EC50 for single agents (isobologram study)
[8] = MT-2 cells, HIV-1 IIIB, read-out: EC50: effective concentration required to achieve 50% protection from HIV in MT-2 cells
[9] = CEM cells, four day cell growth, cell counts vs untreated controls

Relative Vmax (thymidine kinase (TK-1) [3])	EC50 (HIV-1 strain IIIB [2]; [8]) [µM]	Percent of Activity (thymidine kinase (TK-1) [4]) [%]	SMILES	IC50 (MT-2 cells) [µM]	IC50 (CEM cells; [9]) [µM]	Cell count, percentage of untreated CEM control cells (CEM cells; CEM cells, at 100 μM) [%]	further results
1.8 ± 0.5	–	99.5 ± 6.9	C=C[C@@]1(CO)C=C[C@H](n2cc(C)c(=O)[nH]c2=O)O1 [4′-vinyl D4T]	> 100	> 100	78 ± 21	Rate of conversion to the monophosphate form (thymidine kinase (TK-1) [3]; purified human TK-1): approximately 2% of dThd; EC50 (HIV-1 strain IIIB [5]): > 100 µM
55.5 ± 9.7	–	5.4 ± 2.3	Cc1cn([C@H]2C[C@H](N=[N+]=[N-])[C@@H](CO)O2)c(=O)[nH]c1=O [AZT, 3′-Azido-3′-deoxythymidine, reference compound]	–	–	–	Rate of phosphorylation by TK-1, in words (thymidine kinase (TK-1) [3]; purified human TK-1): half as fast as dThd

More lines, now with the values behind:

SMILES	Relative Vmax (thymidine kinase (TK-1) [3])	EC50 (HIV-1 strain IIIB [2]; [8]) [µM]	Percent of Activity (thymidine kinase (TK-1) [4]) [%]	IC50 (MT-2 cells) [µM]	IC50 (CEM cells; [9]) [µM]	Cell count, percentage of untreated CEM control cells (CEM cells; CEM cells, at 100 μM) [%]	further results
Nc1ccn([C@@H]2CS[C@H](CO)O2)c(=O)n1 [3TC, β-L-2′,3′-dideoxy-3′-thiacytidine, reference compound]	–	–	–	–	–	–	IC50 ([1]; Homo sapiens, CCRF-CEM, 96 h): > 200 µM; Mitochondrial DNA content, percentage of untreated CEM control cells ([1]; at 200 μM): 114 ± 2%; EC50 (HIV-1 strain IIIB [2]; [7]): 1 µM; Cell count, percentage of untreated CEM control cells (CEM cells; CEM cells, at 200 μM): 77 ± 28%; IC50 (CEM cells; Homo sapiens, CCRF-CEM, 96 h): > 200 µM; Percent of Untreated Controls (H-9 cells; 5 μM 3TC alone): 99 ± 3%; Percent of Untreated Controls (H-9 cells; 20 μM 3TC alone): 94 ± 3%; Percent of Untreated Controls (H-9 cells; 100 μM 3TC alone): 108 ± 12%
C=CC[C@@]1(CO)C=C[C@H](n2cc(C)c(=O)[nH]c2=O)O1 [4′-allyl D4T]	0.4 ± 0.2	> 100	110.8 ± 9.0	> 100	> 100	–	–
Cc1cn([C@H]2C=C[C@@](C#N)(CO)O2)c(=O)[nH]c1=O [4′-cyano D4T]	1.1 ± 0.2	7 ± 2.6	71.8 ± 8.2	> 100	> 100	60 ± 1	Mitochondrial DNA content, percentage of untreated CEM control cells ([1]; at 100 μM): 264 ± 23%; IC50 [1]: > 100 µM; Anti-HIV activity compared with D4T (HIV-1 strain IIIB [2]; MT-2/IIIB anti HIV-1 system, FIG. 8): less active than D4T
Cc1cn([C@H]2C=C[C@@](C#CCl)(CO)O2)c(=O)[nH]c1=O [4′-ethynylchloro D4T]	3.9 ± 1.0	> 100	53.2 ± 9.2	63.3 ± 20.8	62.6 ± 10	–	–
Cc1cn([C@H]2C=C[C@@](C)(CO)O2)c(=O)[nH]c1=O [4′-methyl D4T]	1.6 ± 0.5	–	103.8 ± 9.9	> 100	> 100	114 ± 2	Rate of conversion to the monophosphate form (thymidine kinase (TK-1) [3]; purified human TK-1): approximately 2% of dThd; EC50 (HIV-1 strain IIIB [5]): > 100 µM
Nc1nc(=O)n([C@@H]2C=C[C@H](CO)O2)cc1F [LFd4C, β-L-2′,3′-dideoxy-2′,3′-didehydro-5-fluorocytidine, reference compound]	–	–	–	–	–	–	EC50 (HIV-1 strain IIIB [2]; [7]): 0.18 µM; Percent of Untreated Controls (H-9 cells; 5 μM LFd4C alone): 73 ± 9%; Percent of Untreated Controls (H-9 cells; 10 μM LFd4C alone): 56 ± 4%
Cc1cn([C@H]2C[C@H](O)[C@@H](CO)O2)c(=O)[nH]c1=O [dThd]	–	–	–	–	–	–	Break down by thymidine phosphorylase [6]: broke down very quickly
Nc1ccn([C@H]2CC[C@@H](CO)O2)c(=O)n1 [ddC, 2′,3′-dideoxycytidine, reference compound]	–	–	–	–	–	–	IC50 ([1]; Homo sapiens, CCRF-CEM, 96 h): 0.15 ± 0.12 µM; IC50 (CEM cells; Homo sapiens, CCRF-CEM, 96 h): 5.5 ± 1.8 µM
